Series [1] in a line: Cyclic voltammetry (formal potentials, Randles-Sevcik diffusion coefficients). Type of series: physicochemical. On the procedure:
CV and EIS experiments were ran using a PalmSens4 potentiostat with the PSTrace software. Electrochemical experiments were performed in 1.0 M NaCl supporting electrolyte using 15 mM of active material at room temperature (18° C.). Formal potentials for the redox couples were estimated by taking the average potential between the cathodic and anodic peak. Diffusional behavior was investigated by varying the scan rate between 10-100 mV·s^−1 for the first electron reduction and 50-200 mV·s^−1 for the second electron reduction, and the diffusion constants of the reduced and oxidized states (D^R and D^O) were determined via the Randles-Sevcik equation assuming ideal reversible behavior (FIG. 12D). Potentiostatic EIS measurements were used for determination of a combined diffusional constant of the reduced and oxidized states (D^EIS) and of the standard electron kinetic rate constant (k^o). These EIS measurements were performed at the formal reduction potential (held for 30 seconds before measurement) in which the concentration of the two redox states at the electrode surface were assumed to be the same and equal to half of the initially prepared redox species concentration.
A glassy carbon working electrode (CH Instruments, 0.0707 cm^2), a saturated calomel reference electrode (SCE, CH Instruments, +0.241 V vs. SHE), and a platinum wire counter electrode were used for both CV and EIS measurements. The working electrode was polished with 1 μm, 0.3 μm, and 0.05 μm alumina slurry successively. All electrodes were rinsed with deionized water in between measurements.
CVs were taken at various scan rates in order to determine the diffusion coefficients via the Randles-Sevcik relation (Eqn. 1) where ip is the peak current in Amps, n is number of electrons transferred, F is Faraday's constant, A is electrode surface area in cm^2, C is the redox species concentration in mole·cm^−3, R is the ideal gas constant, T is temperature, D is the diffusion coefficient, and v is scan rate in V/s. The anodic peak current […] determines the diffusion coefficient of the reduced state (D^R) while the cathodic peak current (ip,a) determines the diffusion coefficient of the oxidized state (D^O). ip=0.4463n^3/2·F^3/2·A·C·R^−1/2·T^−1/2·D^1/2·v^1/2 Eqn. 1

Series [2] can be described thus: Full RFB cell cycling, anolyte-limiting, BTMAP-Fc catholyte. The conditions noted are these: for capacity decay in RFB cycling: anolyte-limiting. The procedure:
The RFB measurements were carried out in a custom-made zero-gap device previously reported by Li et al. (Li, W. et al., Chem 2018, 4 (11), 2644-2657; and Li, W. et al., Adv. Energy Mater. 2019, 9 (31), 1900918.) Both symmetric flow cell and RFB full cell measurements were conducted using a Bio-Logic SP-200 potentiostat at room temperature (˜20° C.). In symmetric cells, 0.1 M of active species in 1 M NaCl (pre-charged to 50% SOC of the first electron reduction using FcNCl as the counter cathode in bulk electrolysis) was utilized on both sides with the capacity limiting side (CLS) consisting of 5 mL of solution and the non-capacity limiting side (NCLS) consisting of 10 mL of solution separated by a Selemion AMV anion-exchange membrane (Asahi Glass Co.). The neat Dex-Vi full RFB cell cycling was performed using the product from the Dex-Vi synthesis directly without any purification. The neat product was diluted to roughly 0.1 M to pair with a 0.2 M BTMAP-Fc counter catholyte in excess capacity separated by an AMV membrane. Both the anolyte and catholyte were 5 mL in total volume with 0.5 M NaCl supporting electrolyte. The first electron high concentration Dex-Vi RFB full cell cycling was performed using 5 mL of 1.5 M Dex-Vi as the anolyte and 10 mL 0.75 M BTMAP-Fc as the catholyte, both of which were prepared in pure water without any supporting salt, with a DSV anion-exchange membrane. The second-electron high concentration full cell cycling was performed using 5 mL of 1.5 M Dex-Vi in water as the anolyte, 20 mL of 0.75 M BTMAP-Fc in water as the catholyte, and a DSV anion-exchange membrane. Rate performance was investigated using 0.1 M Dex-Vi anolyte and 0.2 M BTMAP-Fc catholyte both in 1 M NaCl with DSV anion-exchange membrane.
Graphite plates (⅛-inch thickness, MWI Inc.) with a 20×20×1.2 mm pocket were used as current collectors for RFB devices. 4 cm^2 graphite felt electrodes (GFD 3 EA, […]®) were pre-treated at 400° C. in air for 6 hr before being used on both sides of the cell. 25×25 mm Selemion AMV or DSV was presoaked in 1.0 M NaCl for more than 24 hr before it was used as an anion-exchange membrane. The cell was assembled with four pieces of die cut PTFE sheets (0.04-inch thickness) as gaskets and tightened with eight #10-24 bolts. The electrolytes were pumped through the flow channels by a peristaltic pump (Cole-Parmer Masterflex L/S) via PharMed BPT tubing. The electrolyte flow rate was controlled at 20 mL·min^−1 for all RFB measurements. 10 mL custom made glass vials with two 4 mm OD electrolyte inlet/out arms were used as electrolyte reservoirs. […]

SMILES strings stand for the structures.

`C[N+](C)(C)CC(O)C[n+]1ccc(-c2cc[n+](CC(O)C[N+](C)(C)C)cc2)cc1` (stereo not drawn) [Dex-Vi, bis(3-trimethylammonio-2-hydroxy)propyl viologen tetrachloride]: the “first electron formal potential (E1^0)” value in series [1] (15 mM in 1.0 M NaCl, 18° C.) was −0.322 V vs. SHE. In series [1] (Table 1), the “E1^0” value is recorded as −0.322 V vs. SHE and the “E2^0” value is −0.699 V vs. SHE. The “reduced state diffusion coefficient (D1^R)” value in series [1] (first redox state, 3+ species) is listed as 1.9×10^−6 cm^2·s^−1. Further, in series [1] (first redox state, 4+ species), the “oxidized state diffusion coefficient (D1^O)” value was 2.3×10^−6 cm^2·s^−1. Besides, in series [1] (second redox state), the “D2^O” value is recorded as 4.0×10^−6 cm^2·s^−1 and the “D2^R” value was 3.1×10^−6 cm^2·s^−1. In series [1] (vs. SHE, 15 mM in 1.0 M NaCl, 18° C.), the “second electron formal potential (E2^0)” value is −0.699 V. Also, in series [2] (0.1 M, two weeks (1,200+ cycles)), the “capacity decay in RFB cycling” value was “no observable decay”. Moreover, the “capacity decay in RFB cycling” value in series [2] (1.5 M, one month continual cycling) is “no discernable decay”. For the same compound, in series [2] (Table 1), the “Anolyte-limiting RFB Stability” value is listed as approximately 0% decay/year and the “RFB Viologen Molarity (1e^−)” value came out at 1.5.

For the origin of these results see patent publication US12291513B2, “Pyridinium derivatives made by hydrothermal synthesis for use as anolytes in electrochemical cells” (Wisconsin Alumni Research Foundation, priority 2021, dated 2025).
